Publication PMC11365854, “Molecular basis of hyper-thermostability in the thermophilic archaeal aldolase MfnB” (Extremophiles, 2024)

Experiments:
MfnB_MM [1] = molecular target: T1, MfnB_MM (Methanococcus maripaludis, UniProt Q6LZC1); assay: spectrophotometric, 4-HFC-P formation at […] nm; fit with substrate inhibition term; type: biochemical; details: 45 °C (optimum), pH 7.5, 20 mM Tris–HCl, 150 mM NaCl; two substrate molecules condensed
T1 construct: gene mfnB; full length, N-terminal hexa-histidine tag (pOPINF), no tag cleavage described; codon-optimised synthetic gene, expressed in E. coli BL21 (DE3)
T1 sequence (Q6LZC1 whole entry): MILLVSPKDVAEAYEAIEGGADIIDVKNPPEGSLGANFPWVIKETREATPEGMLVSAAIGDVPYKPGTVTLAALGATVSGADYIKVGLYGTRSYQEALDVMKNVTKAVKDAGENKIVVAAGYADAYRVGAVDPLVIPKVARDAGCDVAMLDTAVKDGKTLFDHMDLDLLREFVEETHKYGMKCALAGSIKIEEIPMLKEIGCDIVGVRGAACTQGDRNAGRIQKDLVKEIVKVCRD

MfnB_MJ = molecular target: T2, MfnB_MJ (Methanocaldococcus jannaschii, UniProt Q58499); assay: as above; type: biochemical; details: 75 °C (optimum), pH 7.5, 20 mM Tris–HCl, 150 mM NaCl; two substrate molecules condensed; substrate inhibition constant
T2 construct: gene mfnB; full length (235 residues), N-terminal hexa-histidine tag (pOPINF), no tag cleavage described; codon-optimised synthetic gene, expressed in E. coli BL21 (DE3); homohexamer in published crystal structure

MfnB_MM [2] = molecular target: T1, MfnB_MM; assay: as above; type: biochemical; details: 45 °C (optimum), pH 7.5, 20 mM Tris–HCl, 150 mM NaCl; two substrate molecules condensed; substrate inhibition constant
purified protein = substrate: O=C[C@H](O)COP(=O)(O)O; assay: purified protein; type: biochemical, Methanocaldococcus jannaschii; details: 75 °C (optimum), pH 7.5, 20 mM Tris–HCl, 150 mM NaCl, two substrate molecules condensed

Molecule	Km (MfnB_MM [1])	Ki (MfnB_MJ)	Ki (MfnB_MM [2])	Km (purified protein)	kcat (purified protein)
O=C[C@H](O)COP(=O)(O)O [D-GA-3-P]	6.9 ± 0.6 µM	565.3 ± 79.7 µM	1532.0 ± 160.4 µM		
MfnB_MJ (Methanocaldococcus jannaschii DSM 2661) (protein, full length (235 residues), N-terminal hexa-histidine tag (pOPINF), no tag cleavage described; codon-optimised synthetic gene, expressed in E. coli BL21 (DE3); homohexamer in published crystal structure) MILLVSPIDVEEAKEAIAGGADIIDVKNPKEGSLGANFPWMIKAIREVTPKDLLVSATVGDVPYKPGTISLAAVGAAISGADYIKVGLYGVKNYYQAVELMKNVVRAVKDIDENKIVVAAGYADAYRVGAVEPLIVPKIARDAGCDVAMLDTAIKDGKTLFDFQSKEILAEFVDEAHSYGLKCALAGSIKKEHIPILKEIGTDIVGVRGAACKGGDRNNGRIDRELVKELKELCK				24.6 ± 3.1 µM	0.142 ± 0.0067 s⁻¹
